Active and inactive are the calls of the source. The rule behind the calls is not given here.
What was measured:
Type in all cases: functional
[1] = Antioxidant activity in methanolic solution at 83 uM at 37 degC
[2] = Antioxidant activity assessed as inhibition of rate of formation of phosphatidylcholine hydroperoxides at 1.9 uM by phosphatidylcholine oxidation assay
[3] = Antioxidant activity assessed as inhibition of rate of formation of phosphatidylcholine hydroperoxides at 2.2 uM by phosphatidylcholine oxidation assay

SMILES	Activity [1]	Activity [2]	Activity [3]
C=C(C)CCC[C@@H](C)CCC[C@@H](C)CCC[C@]1(C)CCc2c(C)c(O)c(C)c(C)c2O1	Active	Active	
Cc1c(C)c2c(c(C)c1O)CC[C@@](C)(CCC[C@H](C)CCC[C@H](C)CCCC(C)C)O2	Active		Active

From ChEMBL document CHEMBL1142553, “A new vitamin E (alpha-tocomonoenol) from eggs of the Pacific salmon Oncorhynchus keta” (J Nat Prod, 1999)
